Assay results as given in patent publication US6706663B2, “Herbicidal 3-heterocyclic substituted benzisothiazole and benzisoxazole compounds” (Wyeth, priority 2000, dated 2004).

Columns and labels:
[1] = system: ZEAMX (Corn, Field); test: Preemergence herbicidal evaluation; type: in vivo, Zea mays, L.; conditions: rated 4-5 weeks after treatment
[2] = system: SAGPY (Sagittaria pygmaea); test: Flooded paddy, preemergence weed control; type: in vivo, L.; conditions: rated 3-4 weeks after treatment, 0-9 rating scale
Outline: (§1)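 Seeds or propagules were planted in the top 0.5 cm of silt loam soil and kept flooded 1.5–3 cm above the surface throughout, then held in the greenhouse. Injury was rated visually on a 0–9 scale against untreated controls, covering stand, vigor, malformation, size and chlorosis.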

[3] = system: ECHCG (Echinochloa crus-galli); test: Postemergence herbicidal evaluation; type: in vivo, (L.) Beau; conditions: postemergence
Outline: (§2)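 Visual 0–9 injury scores versus control plants, covering stand, vigour, malformation, size, chlorosis and general appearance, taken four to five weeks post-spray and averaged over replicate tests. Plants were sprayed at roughly two weeks old and held on greenhouse benches.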

[4] = system: AMBEL (Ambrosia artemisifolia); test: Preemergence herbicidal evaluation; type: in vivo, L.; conditions: rated 4-5 weeks after treatment
Outline: (§3)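 Preemergence soil spray, aq. acetone; greenhouse; visual 0–9 score vs control at 4–5 wk.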

[5] = system: CASOB (Cassia obtusifolia); test: Preemergence herbicidal evaluation; type: in vivo, L.; conditions: rated 4-5 weeks after treatment
Outline: as §3

[6] = system: CHEAL (Chenopodium album); test: Preemergence herbicidal evaluation; type: in vivo, L.; conditions: rated 4-5 weeks after treatment
Outline: as §3

[7] = system: GLXMAW (Soybean, Williams); test: Postemergence herbicidal evaluation; type: in vivo, Glycine max, (L.) Merr. cv Williams; conditions: postemergence
Outline: as §2

[8] = system: ORYSAT (Rice, Tebonnet); test: Preemergence herbicidal evaluation; type: in vivo, Oryza sativa, (L.) Tebonnet; conditions: rated 4-5 weeks after treatment
[9] = system: AMBEL (Ambrosia artemisifolia); test: Postemergence herbicidal evaluation; type: in vivo, L.; conditions: postemergence
Outline: as §2

[10] = system: CASOB (Cassia obtusifolia); test: Postemergence herbicidal evaluation; type: in vivo, L.; conditions: postemergence
Outline: as §2

[11] = system: CHEAL (Chenopodium album); test: Postemergence herbicidal evaluation; type: in vivo, L.; conditions: postemergence
Outline: as §2

[12] = system: GALAP (Galium aparine); test: Postemergence herbicidal evaluation; type: in vivo; conditions: postemergence
Outline: as §2

[13] = system: ZEAMX (Corn, Field); test: Postemergence herbicidal evaluation; type: in vivo, Zea mays, L.; conditions: postemergence
Outline: as §2

[14] = system: IPOHE (Ipomoea hederacea); test: Postemergence herbicidal evaluation; type: in vivo, (L.) Jacq.; conditions: postemergence
Outline: as §2

[15] = system: ECHORC (Echinochloa oryzoides); test: Flooded paddy, preemergence weed control; type: in vivo, Echinochloa oryzoides (Ard.) Fritsch.; conditions: rated 3-4 weeks after treatment, 0-9 rating scale
Outline: as §1

[16] = system: TRZAWR (Wheat, Winter, cv Riband); test: Preemergence herbicidal evaluation; type: in vivo, Triticum aestivum; conditions: rated 4-5 weeks after treatment
Outline: as §3

[17] = system: CYPIR (Cyperus iria); test: Flooded paddy, preemergence weed control; type: in vivo; conditions: rated 3-4 weeks after treatment, 0-9 rating scale
Outline: as §1

[18] = system: GLXMAW (Soybean, Williams); test: Preemergence herbicidal evaluation; type: in vivo, Glycine max, (L.) Merr. cv Williams; conditions: rated 4-5 weeks after treatment
[19] = system: GALAP (Galium aparine); test: Preemergence herbicidal evaluation; type: in vivo; conditions: rated 4-5 weeks after treatment
Outline: as §3

[20] = system: ABUTH (Abutilon theophrasti); test: Postemergence herbicidal evaluation; type: in vivo, Medic.; conditions: postemergence
Outline: as §2

[21] = system: IPOHE (Ipomoea hederacea); test: Preemergence herbicidal evaluation; type: in vivo, (L.) Jacq.; conditions: rated 4-5 weeks after treatment

CC(C)C1COC(c2nsc3ccc(-n4c(=O)cc(C(F)(F)F)n(C)c4=O)cc23)=N1 (stereo not drawn) [Compound 74, 3-[3-(4-isopropyl-2-oxazolin-2-yl)-1,2-benzisothiazol-5-yl]-1-methyl-6-(trifluoromethyl)uracil]
0.0: herbicidal rating, SAGPY ([2]; rate 0.0080 kg/ha) | Preemergence herbicidal rating AMBEL ([4]; Rate 0.0620 kg/ha) | Preemergence herbicidal rating CASOB ([5]; Rate 0.0620 kg/ha) | Preemergence herbicidal rating CASOB ([5]; Rate 0.1250 kg/ha) | herbicidal rating, CYPIR ([17]; rate 0.0080 kg/ha) | Preemergence herbicidal rating IPOHE ([21]; Rate 0.0620 kg/ha) | Preemergence herbicidal rating IPOHE ([21]; Rate 0.1250 kg/ha)
5.0: Preemergence herbicidal rating ORYSAT ([8]; Rate 0.2500 kg/ha) | ZEAMX herbicidal rating ([13]; rate 0.0320 kg/ha) | ZEAMX herbicidal rating ([13]; rate 0.0620 kg/ha) | Preemergence herbicidal rating TRZAWR ([16]; Rate 0.2500 kg/ha)
2.0: Preemergence herbicidal rating ZEAMX ([1]; Rate 0.0620 kg/ha) | Preemergence herbicidal rating ZEAMX ([1]; Rate 0.1250 kg/ha) | ECHCG herbicidal rating ([3]; rate 0.0320 kg/ha) | ECHCG herbicidal rating ([3]; rate 0.0620 kg/ha) | CASOB herbicidal rating ([10]; rate 0.0320 kg/ha) | Preemergence herbicidal rating TRZAWR ([16]; Rate 0.1250 kg/ha)
1.0: Preemergence herbicidal rating ORYSAT ([8]; Rate 0.0620 kg/ha) | Preemergence herbicidal rating ORYSAT ([8]; Rate 0.1250 kg/ha) | CASOB herbicidal rating ([10]; rate 0.0620 kg/ha) | Preemergence herbicidal rating TRZAWR ([16]; Rate 0.0620 kg/ha) | Preemergence herbicidal rating GLXMAW ([18]; Rate 0.0620 kg/ha) | Preemergence herbicidal rating GLXMAW ([18]; Rate 0.1250 kg/ha)
6.0: Preemergence herbicidal rating AMBEL ([4]; Rate 0.1250 kg/ha) | GALAP herbicidal rating ([12]; rate 0.0320 kg/ha) | herbicidal rating, CYPIR ([17]; rate 0.0320 kg/ha) | Preemergence herbicidal rating GALAP ([19]; Rate 0.0620 kg/ha)
8.0: GALAP herbicidal rating ([12]; rate 0.0620 kg/ha) | herbicidal rating, ECHORC ([15]; rate 0.0320 kg/ha) | Preemergence herbicidal rating IPOHE ([21]; Rate 0.2500 kg/ha)
7.0: herbicidal rating, SAGPY ([2]; rate 0.1250 kg/ha) | GLXMAW herbicidal rating ([7]; rate 0.0620 kg/ha) | IPOHE herbicidal rating ([14]; rate 0.0320 kg/ha) | Preemergence herbicidal rating GALAP ([19]; Rate 0.1250 kg/ha)
5.5: GLXMAW herbicidal rating ([7]; rate 0.0320 kg/ha) | herbicidal rating, ECHORC ([15]; rate 0.0080 kg/ha)
4.0: Preemergence herbicidal rating ZEAMX ([1]; Rate 0.2500 kg/ha)
1.5: herbicidal rating, SAGPY ([2]; rate 0.0320 kg/ha)
3.0: Preemergence herbicidal rating CASOB ([5]; Rate 0.2500 kg/ha)
9.0: Preemergence herbicidal rating AMBEL ([4]; Rate 0.2500 kg/ha) | Preemergence herbicidal rating CHEAL ([6]; Rate 0.0620 kg/ha) | Preemergence herbicidal rating CHEAL ([6]; Rate 0.1250 kg/ha) | Preemergence herbicidal rating CHEAL ([6]; Rate 0.2500 kg/ha) | AMBEL herbicidal rating ([9]; rate 0.0320 kg/ha) | AMBEL herbicidal rating ([9]; rate 0.0620 kg/ha) | CHEAL herbicidal rating ([11]; rate 0.0320 kg/ha) | CHEAL herbicidal rating ([11]; rate 0.0620 kg/ha) | IPOHE herbicidal rating ([14]; rate 0.0620 kg/ha) | herbicidal rating, ECHORC ([15]; rate 0.1250 kg/ha) | herbicidal rating, CYPIR ([17]; rate 0.1250 kg/ha) | Preemergence herbicidal rating GLXMAW ([18]; Rate 0.2500 kg/ha) | Preemergence herbicidal rating GALAP ([19]; Rate 0.2500 kg/ha) | ABUTH herbicidal rating ([20]; rate 0.0320 kg/ha) | ABUTH herbicidal rating ([20]; rate 0.0620 kg/ha)
